Laboratory results taken from patent US20260053812A1, “METHODS OF TREATING HYPERTENSION WITH A COMBINATION OF AN ALDOSTERONE SYNTHASE INHIBITOR AND A DIURETIC” (Mineralys Therapeutics, Inc., priority 2022, published 2026).

Experiment: Estimated glomerular filtration rate (eGFR, CKD-EPI equation)
Assay type: in vivo, human

With CC(=O)N[C@H]1CC[C@H](NC(=O)CN2CCN(c3nncc(-c4ccc(C)cc4)n3)CC2)CC1 [Compound A HBr] the “Estimated Glomerular Filtration Rate, mean change from baseline” value (Part 1, 25 mg BID, Week 2) was −5.42 mL/min/1.73 m^2, the “Estimated Glomerular Filtration Rate, mean observed” value (Part 1, 25 mg BID, Week 2) was 75.43 mL/min/1.73 m^2 and the “Estimated Glomerular Filtration Rate, mean change from baseline” value (Part 1, 25 mg BID, Week 3) was −5.90 mL/min/1.73 m^2. The “Estimated Glomerular Filtration Rate, mean observed” value (Part 1, 25 mg BID, Week 3) was 75.07 mL/min/1.73 m^2, the “Estimated Glomerular Filtration Rate, mean change from baseline” value (Part 1, 25 mg BID, Week 4) was −6.69 mL/min/1.73 m^2 and the “Estimated Glomerular Filtration Rate, mean observed” value (Part 1, 25 mg BID, Week 4) was 73.48 mL/min/1.73 m^2. For the same compound, the “Estimated Glomerular Filtration Rate, mean change from baseline” value (Part 1, 25 mg BID, Week 5) was −7.41 mL/min/1.73 m^2, the “Estimated Glomerular Filtration Rate, mean observed” value (Part 1, 25 mg BID, Week 5) was 73.25 mL/min/1.73 m^2 and the “Estimated Glomerular Filtration Rate, mean change from baseline” value (Part 1, 25 mg BID, Week 6) was −8.02 mL/min/1.73 m^2. The “Estimated Glomerular Filtration Rate, mean observed” value (Part 1, 25 mg BID, Week 6) was 72.64 mL/min/1.73 m^2, the “Estimated Glomerular Filtration Rate, mean change from baseline” value (Part 1, 25 mg BID, Week 7) was −7.85 mL/min/1.73 m^2 and the “Estimated Glomerular Filtration Rate, mean observed” value (Part 1, 25 mg BID, Week 7) was 72.22 mL/min/1.73 m^2. For the same compound, the “Estimated Glomerular Filtration Rate, mean change from baseline” value (Part 1, 25 mg BID, Week 8) was −5.55 mL/min/1.73 m^2, the “Estimated Glomerular Filtration Rate, mean observed” value (Part 1, 25 mg BID, Week 8) was 75.11 mL/min/1.73 m^2 and the “Estimated Glomerular Filtration Rate, mean observed” value (Part 1, 50 mg QD, BL) was 77.18 mL/min/1.73 m^2. The “Estimated Glomerular Filtration Rate, mean change from baseline” value (Part 1, 50 mg QD, Week 1) was −2.96 mL/min/1.73 m^2, the “Estimated Glomerular Filtration Rate, mean observed” value (Part 1, 50 mg QD, Week 1) was 74.21 mL/min/1.73 m^2 and the “Estimated Glomerular Filtration Rate, mean change from baseline” value (Part 1, 50 mg QD, Week 2) was −4.32 mL/min/1.73 m^2. For the same compound, the “Estimated Glomerular Filtration Rate, mean observed” value (Part 1, 50 mg QD, Week 2) was 72.86 mL/min/1.73 m^2, the “Estimated Glomerular Filtration Rate, mean change from baseline” value (Part 1, 50 mg QD, Week 3) was −2.35 mL/min/1.73 m^2 and the “Estimated Glomerular Filtration Rate, mean observed” value (Part 1, 50 mg QD, Week 3) was 74.81 mL/min/1.73 m^2. The “Estimated Glomerular Filtration Rate, mean change from baseline” value (Part 1, 50 mg QD, Week 4) was −3.61 mL/min/1.73 m^2, the “Estimated Glomerular Filtration Rate, mean observed” value (Part 1, 50 mg QD, Week 4) was 73.63 mL/min/1.73 m^2 and the “Estimated Glomerular Filtration Rate, mean change from baseline” value (Part 1, 50 mg QD, Week 5) was −4.10 mL/min/1.73 m^2. The “Estimated Glomerular Filtration Rate, mean observed” value (Part 1, 50 mg QD, Week 5) was 70.58 mL/min/1.73 m^2, the “Estimated Glomerular Filtration Rate, mean change from baseline” value (Part 1, 50 mg QD, Week 6) was −2.83 mL/min/1.73 m^2 and the “Estimated Glomerular Filtration Rate, mean observed” value (Part 1, 50 mg QD, Week 6) was 74.63 mL/min/1.73 m^2. For the same compound, the “Estimated Glomerular Filtration Rate, mean change from baseline” value (Part 1, 50 mg QD, Week 7) was −5.46 mL/min/1.73 m^2, the “Estimated Glomerular Filtration Rate, mean observed” value (Part 1, 50 mg QD, Week 7) was 69.68 mL/min/1.73 m^2 and the “Estimated Glomerular Filtration Rate, mean change from baseline” value (Part 1, 50 mg QD, Week 8) was −4.64 mL/min/1.73 m^2. The “Estimated Glomerular Filtration Rate, mean observed” value (Part 1, 50 mg QD, Week 8) was 72.54 mL/min/1.73 m^2, the “Estimated Glomerular Filtration Rate, mean observed” value (Part 1, 100 mg QD, BL) was 77.35 mL/min/1.73 m^2 and the “Estimated Glomerular Filtration Rate, mean change from baseline” value (Part 1, 100 mg QD, Week 1) was −6.80 mL/min/1.73 m^2. For the same compound, the “Estimated Glomerular Filtration Rate, mean observed” value (Part 1, 100 mg QD, Week 1) was 70.81 mL/min/1.73 m^2, the “Estimated Glomerular Filtration Rate, mean change from baseline” value (Part 1, 100 mg QD, Week 2) was −10.91 mL/min/1.73 m^2 and the “Estimated Glomerular Filtration Rate, mean observed” value (Part 1, 100 mg QD, Week 2) was 65.56 mL/min/1.73 m^2. The “Estimated Glomerular Filtration Rate, mean change from baseline” value (Part 1, 100 mg QD, Week 3) was −9.24 mL/min/1.73 m^2, the “Estimated Glomerular Filtration Rate, mean observed” value (Part 1, 100 mg QD, Week 3) was 67.22 mL/min/1.73 m^2 and the “Estimated Glomerular Filtration Rate, mean change from baseline” value (Part 1, 100 mg QD, Week 4) was −9.46 mL/min/1.73 m^2. The “Estimated Glomerular Filtration Rate, mean observed” value (Part 1, 100 mg QD, Week 4) was 67.23 mL/min/1.73 m^2, the “Estimated Glomerular Filtration Rate, mean change from baseline” value (Part 1, 100 mg QD, Week 5) was −10.50 mL/min/1.73 m^2 and the “Estimated Glomerular Filtration Rate, mean observed” value (Part 1, 100 mg QD, Week 5) was 66.19 mL/min/1.73 m^2. For the same compound, the “Estimated Glomerular Filtration Rate, mean change from baseline” value (Part 1, 100 mg QD, Week 6) was −9.94 mL/min/1.73 m^2, the “Estimated Glomerular Filtration Rate, mean observed” value (Part 1, 100 mg QD, Week 6) was 66.19 mL/min/1.73 m^2 and the “Estimated Glomerular Filtration Rate, mean change from baseline” value (Part 1, 100 mg QD, Week 7) was −9.50 mL/min/1.73 m^2. For the same compound, the “Estimated Glomerular Filtration Rate, mean observed” value (Part 1, 100 mg QD, Week 7) was 66.96 mL/min/1.73 m^2, the “Estimated Glomerular Filtration Rate, mean change from baseline” value (Part 1, 100 mg QD, Week 8) was −7.83 mL/min/1.73 m^2 and the “Estimated Glomerular Filtration Rate, mean observed” value (Part 1, 100 mg QD, Week 8) was 68.42 mL/min/1.73 m^2. The “Estimated Glomerular Filtration Rate, mean observed” value (Part 2, 100 mg QD, BL) was 79.90 mL/min/1.73 m^2, the “Estimated Glomerular Filtration Rate, mean change from baseline” value (Part 2, 100 mg QD, Week 1) was −9.65 mL/min/1.73 m^2 and the “Estimated Glomerular Filtration Rate, mean observed” value (Part 2, 100 mg QD, Week 1) was 70.73 mL/min/1.73 m^2. The “Estimated Glomerular Filtration Rate, mean change from baseline” value (Part 2, 100 mg QD, Week 2) was −8.05 mL/min/1.73 m^2, the “Estimated Glomerular Filtration Rate, mean observed” value (Part 2, 100 mg QD, Week 2) was 72.07 mL/min/1.73 m^2 and the “Estimated Glomerular Filtration Rate, mean change from baseline” value (Part 2, 100 mg QD, Week 3) was −7.33 mL/min/1.73 m^2. For the same compound, the “Estimated Glomerular Filtration Rate, mean observed” value (Part 2, 100 mg QD, Week 3) was 72.69 mL/min/1.73 m^2, the “Estimated Glomerular Filtration Rate, mean change from baseline” value (Part 2, 100 mg QD, Week 4) was −7.20 mL/min/1.73 m^2 and the “Estimated Glomerular Filtration Rate, mean observed” value (Part 2, 100 mg QD, Week 4) was 72.92 mL/min/1.73 m^2. For the same compound, the “Estimated Glomerular Filtration Rate, mean change from baseline” value (Part 2, 100 mg QD, Week 5) was −8.69 mL/min/1.73 m^2, the “Estimated Glomerular Filtration Rate, mean observed” value (Part 2, 100 mg QD, Week 5) was 71.23 mL/min/1.73 m^2 and the “Estimated Glomerular Filtration Rate, mean change from baseline” value (Part 2, 100 mg QD, Week 6) was −10.87 mL/min/1.73 m^2. For the same compound, the “Estimated Glomerular Filtration Rate, mean observed” value (Part 2, 100 mg QD, Week 6) was 68.04 mL/min/1.73 m^2, the “Estimated Glomerular Filtration Rate, mean change from baseline” value (Part 2, 100 mg QD, Week 7) was −7.34 mL/min/1.73 m^2 and the “Estimated Glomerular Filtration Rate, mean observed” value (Part 2, 100 mg QD, Week 7) was 72.82 mL/min/1.73 m^2. For the same compound, the “Estimated Glomerular Filtration Rate, mean change from baseline” value (Part 2, 100 mg QD, Week 8) was −7.95 mL/min/1.73 m^2, the “Estimated Glomerular Filtration Rate, mean observed” value (Part 2, 100 mg QD, Week 8) was 72.43 mL/min/1.73 m^2 and the “Change in estimated glomerular filtration rate (eGFR)” value (across dosing cohorts) was “dose-dependent and reversible reduction”.
